Measured values: the supplement of paper PMC11061612

Tests used:
Experiment in all cases: Bliss excess, mean over the matrix (fraction); higher = more synergy
RPMI-7951 (Melanoma) = tested on: RPMI-7951 (Melanoma)
Method in brief: (§1)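 Cell lines in DMEM/F12 or RPMI with 10% FBS were plated in 1536-well plates, held 24 hours at 37°C, 5% CO2, then given two-drug dose matrices for 72 hours (DMSO typically 0.2%). Viability was read by CellTiter-Glo 2.0 luminescence and scaled as inhibition from 0 (vehicle wells) to 1 (blank wells). Combination Emax is the second-highest inhibition in the matrix; Bliss excess is observed combination effect minus expected EA + EB − EA·EB, EA and EB being single-agent effects.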

[1] = tested on: KINGS-1 (Low Grade Glioma)
Method in brief: as §1

GI-1 (Glioblastoma) = tested on: GI-1 (Glioblastoma)
Method in brief: as §1

[2] = tested on: NCI-N87 (Gastric Carcinoma)
Method in brief: as §1

[3] = tested on: LC4-1 (B-Lymphoblastic Leukemia)
Method in brief: as §1

[4] = tested on: PF-382 (T-Lymphoblastic Leukemia)
Method in brief: as §1

[5] = tested on: KLE (Endometrial Carcinoma)
Method in brief: as §1

[6] = tested on: HuP-T3 (Pancreatic Carcinoma)
Method in brief: as §1

[7] = tested on: MFE-319 (Endometrial Carcinoma)
Method in brief: as §1

[8] = tested on: TGBC11TKB (Gastric Carcinoma)
Method in brief: as §1

[9] = tested on: OVISE (Ovarian Carcinoma)
Method in brief: as §1

EW-18 (Ewing's Sarcoma) = tested on: EW-18 (Ewing's Sarcoma)
Method in brief: as §1

[10] = tested on: KYSE-150 (Esophageal Squamous Cell Carcinoma)
Method in brief: as §1

[11] = tested on: ASH-3 (Thyroid Gland Carcinoma)
Method in brief: as §1

GOTO (Neuroblastoma) = tested on: GOTO (Neuroblastoma)
Method in brief: as §1

[12] = tested on: NCI-H513 (Other Solid Carcinomas)
Method in brief: as §1

[13] = tested on: SCC-9 (Oral Cavity Carcinoma)
Method in brief: as §1

IMR-5 (Neuroblastoma) = tested on: IMR-5 (Neuroblastoma)
Method in brief: as §1

[14] = tested on: LOU-NH91 (Squamous Cell Lung Carcinoma)
Method in brief: as §1

NH-12 (Neuroblastoma) = tested on: NH-12 (Neuroblastoma)
Method in brief: as §1

CCc1c2c(nc3ccc(O)cc13)-c1cc3c(c(=O)n1C2)COC(=O)[C@]3(O)CC [SN-38] + O=C(c1cc(Cc2n[nH]c(=O)c3ccccc23)ccc1F)N1CCN(C(=O)C2CC2)CC1 [Olaparib] (first compound max 0.3 µM, 7x7, partner max 10 µM)
Bliss excess (RPMI-7951 (Melanoma)): 0.0656 | Bliss excess [1]: 0.0161 | Bliss excess (GI-1 (Glioblastoma)): 0.0652 | Bliss excess [2]: 0.0599 | Bliss excess [3]: 0.0234 | Bliss excess [4]: 0.0471 | Bliss excess [5]: 0.0346 | Bliss excess [6]: -0.0406 | Bliss excess [7]: 0.0328 | Bliss excess [8]: 0.0814 | Bliss excess [9]: 0.0082 | Bliss excess (EW-18 (Ewing's Sarcoma)): 0.034 | Bliss excess [10]: 0.0762 | Bliss excess [11]: 0.074 | Bliss excess (GOTO (Neuroblastoma)): -0.0014 | Bliss excess [12]: 0.0188 | Bliss excess [13]: 0.0207 | Bliss excess (IMR-5 (Neuroblastoma)): 0.0721 | Bliss excess [14]: 0.0095 | Bliss excess (NH-12 (Neuroblastoma)): -0.0089
